Experimental data from PubChem BioAssay AID1963959 (Molecular Pharmacology Branch, DTP, NCI, 2024).

Tested on: T-47D spheroids with HUVEC/MSC, viability
Assay: Anticancer human tumor T-47D cell line growth inhibition [PI3K];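 further: spheroids exposed to agents for seven days before reading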;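 on viability, T/C: percent of DMSO vehicle control luminescence so 100% = untreated growth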
Settings: for IC50: curve of first compound; for viability, T/C: stronger effect = lower value
How it was run: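 Stroma-containing spheroids: tumor line, pooled-donor HUVEC, hMSC. Treatments: targeted agents with PI3K inhibitors. Dosing: clinically relevant, half-log spacing, 10 microM ceiling without known Cmax. Read-out: cell viability.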

[1] = second compound 0.0316 µM, first compound 0.0316 µM
[2] = second compound 0.0316 µM, first compound 0.1 µM
[3] = second compound 0.0316 µM, first compound 0.316 µM
[4] = second compound 0.0316 µM, first compound 1 µM
[5] = second compound 0.0316 µM, first compound 3.16 µM
[6] = second compound 0.0316 µM, first compound 10 µM
[7] = second compound 0.1 µM, first compound 0.0316 µM
[8] = second compound 0.1 µM, first compound 0.1 µM
[9] = second compound 0.1 µM, first compound 0.316 µM
[10] = second compound 0.1 µM, first compound 1 µM
[11] = second compound 0.1 µM, first compound 3.16 µM
[12] = second compound 0.1 µM, first compound 10 µM
[13] = second compound 0.316 µM, first compound 0.0316 µM
[14] = second compound 0.316 µM, first compound 0.1 µM
[15] = second compound 0.316 µM, first compound 0.316 µM
[16] = second compound 0.316 µM, first compound 1 µM
[17] = second compound 0.316 µM, first compound 3.16 µM
[18] = second compound 0.316 µM, first compound 10 µM
[19] = second compound 1 µM, first compound 0.0316 µM
[20] = second compound 1 µM, first compound 0.1 µM
[21] = second compound 1 µM, first compound 0.316 µM
[22] = second compound 1 µM, first compound 1 µM
[23] = second compound 1 µM, first compound 3.16 µM
[24] = second compound 1 µM, first compound 10 µM
[25] = second compound 3.16 µM, first compound 0.0316 µM
[26] = second compound 3.16 µM, first compound 0.1 µM
[27] = second compound 3.16 µM, first compound 0.316 µM
[28] = second compound 3.16 µM, first compound 1 µM
[29] = second compound 3.16 µM, first compound 3.16 µM
[30] = second compound 3.16 µM, first compound 10 µM
[31] = second compound 10 µM, first compound 0.0316 µM
[32] = second compound 10 µM, first compound 0.1 µM
[33] = second compound 10 µM, first compound 0.316 µM
[34] = second compound 10 µM, first compound 1 µM
[35] = second compound 10 µM, first compound 3.16 µM
[36] = second compound 10 µM, first compound 10 µM

Compound `C=CC(=O)N1CCN(c2nc(=O)n(-c3c(C)ccnc3C(C)C)c3nc(-c4c(O)cccc4F)c(F)cc23)C(C)C1` (stereo unspecified) + CC(Nc1ncnc2nc[nH]c12)c1cc2cccc(Cl)c2c(=O)n1-c1ccccc1 has an IC50 (second compound 0.0316 µM) greater than 10 µM, an IC50 (second compound 0.1 µM) greater than 10 µM and an IC50 (second compound 0.316 µM) greater than 10 µM. The IC50 (second compound 1 µM) was greater than 10 µM, the IC50 (second compound 3.16 µM) was greater than 10 µM and the IC50 (second compound 10 µM) was greater than 10 µM. The viability, T/C [1] was 98.2%, the viability, T/C [2] was 80.2% and the viability, T/C [3] was 93.8%. For the same compound, the viability, T/C [4] was 92.8%, the viability, T/C [5] was 105% and the viability, T/C [6] was 112%. The viability, T/C [7] was 121%, the viability, T/C [8] was 73% and the viability, T/C [9] was 90.1%. The viability, T/C [10] was 86.4%, the viability, T/C [11] was 115% and the viability, T/C [12] was 139%. The viability, T/C [13] was 107%, the viability, T/C [14] was 110% and the viability, T/C [15] was 93.6%. The viability, T/C [16] was 85.3%, the viability, T/C [17] was 89.6% and the viability, T/C [18] was 117%. It also gave a viability, T/C [19] of 74.3%, a viability, T/C [20] of 89.2% and a viability, T/C [21] of 88.5%. The viability, T/C [22] was 98.4%, the viability, T/C [23] was 118% and the viability, T/C [24] was 115%. For the same compound, the viability, T/C [25] was 75.5%, the viability, T/C [26] was 92.3% and the viability, T/C [27] was 94%. It also gave a viability, T/C [28] of 94.1%, a viability, T/C [29] of 107% and a viability, T/C [30] of 122%. For the same compound, the viability, T/C [31] was 100%, the viability, T/C [32] was 92.5% and the viability, T/C [33] was 94%. It also gave a viability, T/C [34] of 112%, a viability, T/C [35] of 106% and a viability, T/C [36] of 113%.

Compound `Cn1ncc(Cl)c1-c1cc(C(=O)NC(CN)Cc2cccc(F)c2)sc1Cl` (stereo unspecified) + CC(Nc1ncnc2nc[nH]c12)c1cc2cccc(Cl)c2c(=O)n1-c1ccccc1 has an IC50 (second compound 0.0316 µM) greater than 10 µM, an IC50 (second compound 0.1 µM) greater than 10 µM and an IC50 (second compound 0.316 µM) greater than 10 µM. The IC50 (second compound 1 µM) was greater than 10 µM, the IC50 (second compound 3.16 µM) was greater than 10 µM and the IC50 (second compound 10 µM) was greater than 10 µM. It also gave a viability, T/C [1] of 101%, a viability, T/C [2] of 101% and a viability, T/C [3] of 84.2%. It also gave a viability, T/C [4] of 76.6%, a viability, T/C [5] of 64.2% and a viability, T/C [6] of 66.6%. For the same compound, the viability, T/C [7] was 100%, the viability, T/C [8] was 79.2% and the viability, T/C [9] was 80.2%. It also gave a viability, T/C [10] of 76.9%, a viability, T/C [11] of 70.8% and a viability, T/C [12] of 66.6%. It also gave a viability, T/C [13] of 104%, a viability, T/C [14] of 89.1% and a viability, T/C [15] of 91.5%. It also gave a viability, T/C [16] of 68.1%, a viability, T/C [17] of 72.4% and a viability, T/C [18] of 68.3%. The viability, T/C [19] was 103%, the viability, T/C [20] was 94.7% and the viability, T/C [21] was 81.2%. It also gave a viability, T/C [22] of 67.1%, a viability, T/C [23] of 58.7% and a viability, T/C [24] of 74.1%. The viability, T/C [25] was 82.9%, the viability, T/C [26] was 99.3% and the viability, T/C [27] was 79.9%. The viability, T/C [28] was 57.6%, the viability, T/C [29] was 72.8% and the viability, T/C [30] was 69.1%. It also gave a viability, T/C [31] of 97.8%, a viability, T/C [32] of 92.2% and a viability, T/C [33] of 77.5%. For the same compound, the viability, T/C [34] was 68.4%, the viability, T/C [35] was 66.9% and the viability, T/C [36] was 71.4%.

`CC(=O)c1c(C)c2cnc(Nc3ccc(N4CCNCC4)cn3)nc2n(C2CCCC2)c1=O` + Cc1nc(NC(=O)N2CCCC2C(N)=O)sc1-c1ccnc(C(C)(C)C(F)(F)F)c1 gave an IC50 (second compound 0.0316 µM) greater than 0.1 µM, an IC50 (second compound 0.1 µM) greater than 0.1 µM and an IC50 (second compound 0.316 µM) greater than 0.1 µM. The IC50 (second compound 1 µM) was greater than 0.1 µM, the IC50 (second compound 3.16 µM) was 0.0304 µM and the IC50 (second compound 10 µM) was less than 0.000316 µM. For the same compound, the viability, T/C (second compound 0.0316 µM, first compound 0.000316 µM) was 109%, the viability, T/C (second compound 0.0316 µM, first compound 0.001 µM) was 101% and the viability, T/C (second compound 0.0316 µM, first compound 0.00316 µM) was 98.8%. It also gave a viability, T/C (second compound 0.0316 µM, first compound 0.01 µM) of 98.4%, a viability, T/C [1] of 92.1% and a viability, T/C [2] of 89.2%. The viability, T/C (second compound 0.1 µM, first compound 0.000316 µM) was 101%, the viability, T/C (second compound 0.1 µM, first compound 0.001 µM) was 100% and the viability, T/C (second compound 0.1 µM, first compound 0.00316 µM) was 95.8%. It also gave a viability, T/C (second compound 0.1 µM, first compound 0.01 µM) of 107%, a viability, T/C [7] of 95.5% and a viability, T/C [8] of 83%. For the same compound, the viability, T/C (second compound 0.316 µM, first compound 0.000316 µM) was 98.3%, the viability, T/C (second compound 0.316 µM, first compound 0.001 µM) was 110% and the viability, T/C (second compound 0.316 µM, first compound 0.00316 µM) was 88%. It also gave a viability, T/C (second compound 0.316 µM, first compound 0.01 µM) of 99.5%, a viability, T/C [13] of 95.2% and a viability, T/C [14] of 75.3%. It also gave a viability, T/C (second compound 1 µM, first compound 0.000316 µM) of 98.4%, a viability, T/C (second compound 1 µM, first compound 0.001 µM) of 90.7% and a viability, T/C (second compound 1 µM, first compound 0.00316 µM) of 85.9%. It also gave a viability, T/C (second compound 1 µM, first compound 0.01 µM) of 82.7%, a viability, T/C [19] of 86.6% and a viability, T/C [20] of 61.8%. The viability, T/C (second compound 3.16 µM, first compound 0.000316 µM) was 65.7%, the viability, T/C (second compound 3.16 µM, first compound 0.001 µM) was 66.8% and the viability, T/C (second compound 3.16 µM, first compound 0.00316 µM) was 69.3%. For the same compound, the viability, T/C (second compound 3.16 µM, first compound 0.01 µM) was 64.2%, the viability, T/C [25] was 49.6% and the viability, T/C [26] was 42.6%. For the same compound, the viability, T/C (second compound 10 µM, first compound 0.000316 µM) was 37.1%, the viability, T/C (second compound 10 µM, first compound 0.001 µM) was 39.8% and the viability, T/C (second compound 10 µM, first compound 0.00316 µM) was 35.1%. For the same compound, the viability, T/C (second compound 10 µM, first compound 0.01 µM) was 31.3%, the viability, T/C [31] was 23.1% and the viability, T/C [32] was 29.3%.
